Data on 10 molecules can be found in patent USRE50528E1, “Compounds and compositions for modulating EGFR mutant kinase activities” (Yuhan Corporation, priority 2014, dated 2025).

Some results are limits rather than exact numbers.

The target in one experiment is T1, SYK (Homo sapiens, UniProt P43405).
T1 construct: Purified human, full-length SYK, KDR; purchased Carna Biosciences
The experiment can be described thus: Kinase inhibition assay, SYK.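 Note: purified full-length human SYK pre-incubated 30 min with compound, then ULight-TK peptide phosphorylation for 1 h, detected with Europium-labeled antibody in Lance buffer.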 In kind it is biochemical. The following applies: biochemical potency.

The target in the next experiment is T2, EGFR mutant T790M (Homo sapiens, UniProt P00533, T790M).
T2 construct: truncated human JAK3, EGFR mutants such as del E746-A750; purchased Carna Biosciences
Nature of the experiment: Kinase inhibition assay, EGFR mutant T790M.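 Note: truncated human EGFR mutant enzyme preincubated two hours with compound, then ATP plus ULight-PolyGT peptide for one hour, Europium-labeled antibody LANCE detection, IC50.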 The following applies: biochemical potency.

Another experiment deals with T3, EGFR mutant L858R (Homo sapiens, UniProt P00533, L858R).
T3 construct: truncated human JAK3, EGFR mutants such as del E746-A750; purchased Carna Biosciences
The experiment can be described thus: Kinase inhibition assay, EGFR L858R.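 Note: truncated human EGFR L858R kinase with compound preincubation, ULight-PolyGT peptide phosphorylation read by Europium-antibody Lance detection, IC50.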 It counts as biochemical. The following applies: read-out: EGFR mutants L858R.

Experiment [1] addresses T4, EGFR mutant Del19 (E746-A750) (Homo sapiens, UniProt P00533, DEL746-750).
T4 construct: truncated human JAK3, EGFR mutants such as del E746-A750; purchased Carna Biosciences
The experiment can be described thus: Kinase inhibition assay, EGFR del E746-A750.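 Note: truncated human EGFR mutant kinase, two-hour preincubation with compound, then one-hour reaction with ATP and ULight-PolyGT peptide, LANCE Europium-antibody phosphorylation readout, IC50.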 In kind it is biochemical. The following applies: read-out: EGFR mutants Del19 (E746-A750).

The target of a further experiment is T5, EGFR mutant L858R/T790M (Homo sapiens, UniProt P00533, L858R/T790M).
T5 construct: truncated human JAK3, EGFR mutants such as del E746-A750; purchased Carna Biosciences
Nature of the experiment: Kinase inhibition assay, EGFR L858R/T790M.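 Note: truncated human enzyme preincubated two hours with compound, then one hour with one millimolar ATP and ULight-PolyGT peptide, Europium-labeled antibody detection, IC50.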 In kind it is biochemical. The following applies: read-out: EGFR mutants L858R/T790M.

With `C=CC(=O)Nc1ccc(OC)c(Nc2nccc(-n3ccc(C)n3)n2)c1` [Compound 9, N-(4-methoxy-3-(4-(3-methyl-1H-pyrazol-1-yl)pyrimidin-2-ylamino)phenyl)acrylamide], the IC50 on SYK is more than 1000 nM; against EGFR mutant T790M, 20 to 200 nM.

`C=CC(=O)Nc1ccc(OC)c(Nc2ncc(C)c(-n3cc(CN4CC(O)C4)cn3)n2)c1` [Compound 11, N-(3-(4-(4-((3-hydroxyazetidin-1-yl)methyl)-1H-pyrazol-1-yl)-5-methylpyrimidin-2-ylamino)-4-methoxyphenyl)acrylamide]: the IC50 against SYK is 20 to 200 nM; against EGFR mutant T790M, less than 20 nM.

For `C=CC(=O)Nc1cc(Nc2nccc(-n3cc(CN4CCC4)c(C)n3)n2)c(OC)cc1N(C)CCN(C)C` [Compound 16, N-(5-(4-(4-(azetidin-1-ylmethyl)-3-methyl-1H-pyrazol-1-yl)pyrimidin-2-ylamino)-2-((2-(dimethylamino)ethyl)(methyl)amino)-4-methoxyphenyl)acrylamide], the IC50 is more than 1000 nM against SYK and 20 to 200 nM on EGFR mutant T790M.

As for `C=CC(=O)Nc1cc(Nc2nccc(-n3cc(CN4CCC4)c(C)n3)n2)c(OC)cc1N1CCCCC1` [Compound 18, N-(5-(4-(4-(azetidin-1-ylmethyl)-3-methyl-1H-pyrazol-1-yl)pyrimidin-2-ylamino)-4-methoxy-2-(piperidin-1-yl)phenyl)acrylamide], the IC50 is more than 1000 nM on SYK and less than 20 nM on EGFR mutant T790M.

In the case of `C=CC(=O)Nc1cc(Nc2ncc(C)c(-n3cc(CN4C[C@@H](O)[C@@H](O)C4)cn3)n2)c(OC)cc1N1CCOCC1` [Compound 20, N-(5-(4-(4-(((3R,4S)-3,4-dihydroxypyrrolidin-1-yl)methyl)-1H-pyrazol-1-yl)-5-methylpyrimidin-2-ylamino)-4-methoxy-2-morpholinophenyl)acrylamide], the IC50 against SYK was 201 to 1000 nM; against EGFR mutant T790M it was less than 20 nM.

At EGFR mutant T790M, `C=CC(=O)Nc1cc(Nc2nccc(-n3cc(CN4CC(F)C4)c(C)n3)n2)c(OC)cc1N1CCOCC1` [Compound 72, N-(5-(4-(4-((3-fluoroazetidin-1-yl)methyl)-3-methyl-1H-pyrazol-1-yl)pyrimidin-2-ylamino)-4-methoxy-2-morpholinophenyl)acrylamide] came in with an IC50 of 20 to 200 nM.

In the case of `C=CC(=O)Nc1cc(Nc2nccc(-n3cc(CN(C)C)c(-c4ccccc4)n3)n2)c(OC)cc1N1CCCC1` [Compound 98, N-(5-(4-(4-((dimethylamino)methyl)-3-phenyl-1H-pyrazol-1-yl)pyrimidin-2-ylamino)-4-methoxy-2-(pyrrolidin-1-yl)phenyl)acrylamide], the IC50 on EGFR mutant L858R was 20 to 200 nM; against EGFR mutant T790M, 20 to 200 nM; in experiment [1], less than 20 nM; on EGFR mutant L858R/T790M, 20 to 200 nM.

In the case of `C=CC(=O)Nc1cc(Nc2nccc(-n3cc(CN4CCC4)c(-c4ccccc4)n3)n2)c(OC)cc1N1CCCC1` [Compound 99, N-(5-(4-(4-(azetidin-1-ylmethyl)-3-phenyl-1H-pyrazol-1-yl)pyrimidin-2-ylamino)-4-methoxy-2-(pyrrolidin-1-yl)phenyl)acrylamide], the IC50 on EGFR mutant L858R was 20 to 200 nM; at EGFR mutant T790M it was 20 to 200 nM; in experiment [1], less than 20 nM; at EGFR mutant L858R/T790M, 20 to 200 nM.

As to `C=CC(=O)Nc1cc(Nc2nccc(-n3cc(CN4CCC4)c(C(C)(C)C)n3)n2)c(OC)cc1N(C)C1COC1` [Compound 103, N-(5-(4-(4-(azetidin-1-ylmethyl)-3-tert-butyl-1H-pyrazol-1-yl)pyrimidin-2-ylamino)-4-methoxy-2-(methyl(oxetan-3-yl)amino)phenyl)acrylamide], the IC50 (on EGFR mutant L858R; against EGFR mutant T790M; in experiment [1]; at EGFR mutant L858R/T790M) was less than 20 nM throughout.

“N-(2-((2-(dimethylamino)ethyl)(methyl)amino)-5-(4-(3-((dimethylamino)methyl)-4-(trifluoromethyl)-1H-pyrrol-1-yl)-5-fluoropyrimidin-2-ylamino)-4-methoxyphenyl)acrylamide [Compound 144]” returned an IC50 against EGFR mutant T790M of less than 20 nM.
